The results in this text go back to patent publication US20260356804A1, “SODIUM CHANNEL BLOCKING COMPOUNDS, DERIVATIVES THEREOF, AND METHODS OF THEIR USE” (LATIGO BIOTHERAPEUTICS, INC., priority 2022, published 2026).

This assay has as its target T1, human Nav1.8/b3 (Homo sapiens, UniProt Q9Y5Y9).
T1 construct: expressed in transfected cells; host or cells: CHO
Description: Compound Profiling Human NaV1.8/β3 Cell Line—SyncroPatch384PE Assay (automated patch clamp, stably transfected CHO cells). The assay is classed as cell-based. The following applies: Nav1.8/b3 CHO cells. (The patch-clamp technique gives a direct electrical read-out from membranes.)

Where [1] appears, read: P1 (IC50, resting state block), P1 measurement, resting state block, holding potential −120 mV, fourth set of compounds.
[2] abbreviates: P2 (IC50, inactivated state block), P2 measurement, inactivated state block, inactivation step −35 mV 10 sec, fourth set of compounds.
The mark [3] stands for this setting: P1 (IC50, resting state block), P1 measurement, resting state block, holding potential −120 mV, third set of compounds.
Where [4] appears, read: P2 (IC50, inactivated state block), P2 measurement, inactivated state block, inactivation step −35 mV 10 sec, third set of compounds.
The mark [5] stands for this setting: P1 (IC50, resting state block), P1 measurement, resting state block, holding potential −120 mV, second set of compounds.
Setting [6] is: P2 (IC50, inactivated state block), P2 measurement, inactivated state block, inactivation step −35 mV 10 sec, second set of compounds.
[7] abbreviates: P1 (IC50, resting state block), P1 measurement, resting state block, holding potential −120 mV, first set of compounds.
Setting [8] is: P2 (IC50, inactivated state block), P2 measurement, inactivated state block, inactivation step −35 mV 10 sec, first set of compounds.
Where [9] appears, read: P1 measurement, resting state block, holding potential −120 mV, third set of compounds, read-out: P1 (IC50, resting state block).
Where [10] appears, read: P2 measurement, inactivated state block, inactivation step −35 mV 10 sec, third set of compounds, read-out: P2 (IC50, inactivated state block).

pIC50: −log10 of the molar value. Where two headings read alike, the source gives them in different places.

T1 sequence (Q9Y5Y9 whole entry): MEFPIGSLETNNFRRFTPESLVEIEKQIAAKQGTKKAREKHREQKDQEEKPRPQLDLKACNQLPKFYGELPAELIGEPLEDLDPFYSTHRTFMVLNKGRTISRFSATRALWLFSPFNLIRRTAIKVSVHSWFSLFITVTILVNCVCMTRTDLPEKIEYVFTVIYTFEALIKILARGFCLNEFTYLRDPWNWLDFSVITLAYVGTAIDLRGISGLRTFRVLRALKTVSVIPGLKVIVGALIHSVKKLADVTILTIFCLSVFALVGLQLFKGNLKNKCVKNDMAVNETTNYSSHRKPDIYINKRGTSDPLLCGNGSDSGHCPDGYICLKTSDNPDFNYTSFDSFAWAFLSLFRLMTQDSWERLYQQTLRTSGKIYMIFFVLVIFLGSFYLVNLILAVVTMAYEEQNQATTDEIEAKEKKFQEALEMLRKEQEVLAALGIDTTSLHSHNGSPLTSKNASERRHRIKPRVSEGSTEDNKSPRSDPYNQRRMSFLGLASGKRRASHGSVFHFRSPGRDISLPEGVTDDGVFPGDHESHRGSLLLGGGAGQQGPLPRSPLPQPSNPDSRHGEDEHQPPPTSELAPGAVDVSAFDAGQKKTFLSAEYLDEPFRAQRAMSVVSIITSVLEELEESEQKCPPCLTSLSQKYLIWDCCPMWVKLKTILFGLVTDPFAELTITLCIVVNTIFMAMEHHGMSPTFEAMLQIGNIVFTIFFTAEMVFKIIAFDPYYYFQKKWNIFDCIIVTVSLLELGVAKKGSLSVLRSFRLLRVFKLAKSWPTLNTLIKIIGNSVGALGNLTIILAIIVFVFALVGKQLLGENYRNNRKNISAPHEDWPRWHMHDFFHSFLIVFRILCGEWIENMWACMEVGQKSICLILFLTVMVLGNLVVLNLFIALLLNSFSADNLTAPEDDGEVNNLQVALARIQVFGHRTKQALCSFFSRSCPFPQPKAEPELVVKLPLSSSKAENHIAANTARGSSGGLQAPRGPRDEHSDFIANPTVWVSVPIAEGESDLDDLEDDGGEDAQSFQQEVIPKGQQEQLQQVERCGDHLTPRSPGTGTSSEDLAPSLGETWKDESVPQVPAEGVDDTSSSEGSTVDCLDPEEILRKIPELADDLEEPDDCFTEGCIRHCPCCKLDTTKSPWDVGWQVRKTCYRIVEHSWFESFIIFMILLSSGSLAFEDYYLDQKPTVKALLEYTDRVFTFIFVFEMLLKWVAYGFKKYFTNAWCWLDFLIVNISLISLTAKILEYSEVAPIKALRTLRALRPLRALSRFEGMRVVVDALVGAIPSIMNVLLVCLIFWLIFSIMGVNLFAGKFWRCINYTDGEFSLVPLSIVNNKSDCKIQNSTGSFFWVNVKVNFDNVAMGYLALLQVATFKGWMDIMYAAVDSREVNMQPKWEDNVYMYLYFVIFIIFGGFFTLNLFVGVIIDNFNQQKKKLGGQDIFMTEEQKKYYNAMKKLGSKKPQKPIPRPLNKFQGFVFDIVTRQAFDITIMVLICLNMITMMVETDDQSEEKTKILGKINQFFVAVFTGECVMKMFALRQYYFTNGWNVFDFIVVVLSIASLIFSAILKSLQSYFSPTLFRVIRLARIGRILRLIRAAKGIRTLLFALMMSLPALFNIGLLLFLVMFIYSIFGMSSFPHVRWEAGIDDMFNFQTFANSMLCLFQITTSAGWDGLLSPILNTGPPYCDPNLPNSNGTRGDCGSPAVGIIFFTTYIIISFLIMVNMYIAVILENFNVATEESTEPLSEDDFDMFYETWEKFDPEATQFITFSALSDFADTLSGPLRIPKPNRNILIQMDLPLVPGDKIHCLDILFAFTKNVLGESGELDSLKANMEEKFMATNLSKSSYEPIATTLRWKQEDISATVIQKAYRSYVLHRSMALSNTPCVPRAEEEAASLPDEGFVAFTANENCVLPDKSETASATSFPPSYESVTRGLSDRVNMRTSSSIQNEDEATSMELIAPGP
T1 sequence (Q9NY72 23-215 partner): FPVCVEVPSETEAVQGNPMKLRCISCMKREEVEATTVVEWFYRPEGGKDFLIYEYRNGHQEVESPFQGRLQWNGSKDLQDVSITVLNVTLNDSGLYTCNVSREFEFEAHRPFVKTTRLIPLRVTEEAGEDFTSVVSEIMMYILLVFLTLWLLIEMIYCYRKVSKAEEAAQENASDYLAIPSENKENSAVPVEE

One may read the pIC50 as the negative decadic logarithm of the IC50, by convention in mol/L. For the molecule `Cc1nc(F)ccc1Oc1ncc(C(F)(F)F)c(C)c1C(=O)Nc1cccc([S@@](C)(=O)=NC(=O)CN)c1` [Example 2D, (R)-2-((6-fluoro-2-methylpyridin-3-yl)oxy)-N-(3-(N-glycyl-S-methylsulfonimidoyl)phenyl)-4-methyl-5-(trifluoromethyl)nicotinamide], the pIC50 is, setting by setting: under setting [1], over 8.30; under setting [2], over 8.30.

Regarding `Cc1nc(F)ccc1Oc1ncc(-c2ccc(F)c(F)c2)c(C)c1C(=O)Nc1cccc([S@](C)(=N)=O)c1` [Example 6C, (R)-5-(3,4-difluorophenyl)-2-((6-fluoro-2-methylpyridin-3-yl)oxy)-4-methyl-N-(3-(S-methylsulfonimidoyl)phenyl)nicotinamide], the pIC50 reads like this: under setting [3], over 8.30; under setting [4], over 8.30.

Turning to `Cc1nc(F)ccc1Oc1cc(C(F)(F)F)c(Cl)cc1C(=O)Nc1cccc([S@@](C)(=O)=NC(=O)C(C)(C)N)c1` [Example 7B, (R)—N-(3-(N-(2-amino-2-methylpropanoyl)-S-methylsulfonimidoyl)phenyl)-5-chloro-2-((6-fluoro-2-methylpyridin-3-yl)oxy)-4-(trifluoromethyl)benzamide], the negative logarithm of the IC50 (pIC50) reads like this: under setting [5], over 8.30; under setting [6], over 8.30.

In turn, `Cc1nc(F)ccc1Oc1cc(C(F)(F)F)c(Cl)cc1C(=O)Nc1ccc(C(N)=O)cc1` [Example 68A] had a pIC50 under setting [7] of 7.30 to 8.30 and a pIC50 under setting [8] of over 8.30.

Turning to `COc1c(Oc2cc(C(F)(F)F)nnc2C(=O)Nc2cccc(S(C)(=N)=O)c2)ccc(F)c1F` (stereo not shown) [Example 31C, 4-(3,4-difluoro-2-methoxyphenoxy)-N-(3-(S-methylsulfonimidoyl)phenyl)-6-(trifluoromethyl)pyridazine-3-carboxamide], the pIC50 reads like this: under setting [3], 6.70 to 7.00; under setting [4], 6.70 to 7.00.

Regarding `Cc1nc(F)ccc1Oc1cnc(C(F)(F)F)c(C)c1C(=O)Nc1cccc([S@](C)(=N)=O)c1` [Example 44C, (R)-5-((6-fluoro-2-methylpyridin-3-yl)oxy)-3-methyl-N-(3-(S-methylsulfonimidoyl)phenyl)-2-(trifluoromethyl)isonicotinamide], the negative logarithm of the IC50 (pIC50) by setting is: under setting [9], 7.30 to 8.30; under setting [10], 7.30 to 8.30.

In the case of `Cc1nc(F)ccc1Oc1cc(C(F)(F)F)c(Cl)c(F)c1C(=O)Nc1ccnc([S@@](C)(=N)=O)c1` [Example 34A], the pIC50 is, setting by setting: under setting [7], over 8.30; under setting [8], over 8.30.

For the molecule `Cc1nc(F)ccc1Oc1cc(C(F)(F)F)c(Cl)cc1C(=O)Nc1ccnc([S@](C)(=N)=O)c1` (single isomer, unassigned) [Example 6A], the pIC50 is, setting by setting: under setting [7], over 8.30; under setting [8], over 8.30.

For `Cc1nc(F)ccc1Oc1ccc(C(F)(F)F)c(F)c1C(=O)Nc1cccc([S@@](C)(=O)=NC(=O)[C@@H]2CCCN2)c1` [Example 21B, (S)—N—((R)-(3-(2-fluoro-6-((6-fluoro-2-methylpyridin-3-yl)oxy)-3-(trifluoromethyl)benzamido)phenyl)(methyl)(oxo)-λ^6-sulfaneylidene)pyrrolidine-2-carboxamide], the pIC50 reads like this: under setting [5], 7.30 to 8.30; under setting [6], 7.30 to 8.30.

`Cc1nc(F)ccc1Oc1ncc(C(F)(F)F)c(C)c1C(=O)Nc1cccc([S@@](C)(=O)=NC(=O)C(N)C(F)(F)F)c1` (stereo partly drawn) [Example 11D, N-(3-((R)—N-(2-amino-3,3,3-trifluoropropanoyl)-S-methylsulfonimidoyl)phenyl)-2-((6-fluoro-2-methylpyridin-3-yl)oxy)-4-methyl-5-(trifluoromethyl)nicotinamide]: the pIC50 by setting is: under setting [1], over 8.30; under setting [2], over 8.30.

Take `Cc1nc(F)ccc1Oc1nc(C2CC2)c(C(F)(F)F)c(C)c1C(=O)Nc1cccc([S@@](C)(=N)=O)c1` [Example 107C]: the pIC50 by setting is: under setting [9], over 8.30; under setting [10], over 8.30.

With `Cc1nc(F)ccc1Oc1ncc(C(F)(F)F)c(C)c1C(=O)NC12CC(C(N)=O)(C1)C2` [Example 112C], the pIC50 under setting [3] is under 6.70 and the pIC50 under setting [4] is under 6.70.

In the case of `Cc1nc(F)ccc1Oc1ncc(C(F)(F)F)c(C)c1C(=O)Nc1ccc(C(N)=O)nc1` [Example 111C], the negative-log IC50 (pIC50) reads like this: under setting [3], under 6.70; under setting [4], under 6.70.

As for `Cc1nc(F)ccc1Oc1ncc(-c2ccc(C(F)F)cc2)c(C)c1C(=O)Nc1cccc([S@](C)(=N)=O)c1` [Example 2C, (R)-5-(4-(difluoromethyl)phenyl)-2-((6-fluoro-2-methylpyridin-3-yl)oxy)-4-methyl-N-(3-(S-methylsulfonimidoyl)phenyl)nicotinamide], the pIC50 was 7.30 to 8.30 under setting [3] and 7.30 to 8.30 under setting [4].

Turning to `Cc1nc(F)ccc1Oc1ncc(C(F)(F)F)c(C)c1C(=O)Nc1cccc([S@@](C)(=O)=NC(=O)[C@@H](C)O)c1` [Example 16D, 2-((6-fluoro-2-methylpyridin-3-yl)oxy)-N-(3-((R)—N—((R)-2-hydroxypropanoyl)-S-methylsulfonimidoyl)phenyl)-4-methyl-5-(trifluoromethyl)nicotinamide], the pIC50 is, setting by setting: under setting [1], over 8.30; under setting [2], over 8.30.

As for `Cc1nc(F)ccc1Oc1cc(C(F)(F)F)c(Cl)cc1C(=O)Nc1ccc(F)c([S@@](C)(=N)=O)c1` [Example 70A], the pIC50 by setting is: under setting [7], over 8.30; under setting [8], over 8.30.

Turning to `Cc1nc(F)ccc1Oc1cc(C(F)(F)F)c(Cl)c(C)c1C(=O)Nc1cccc([S@](C)(=N)=O)c1` [Example 10A, (R)-3-chloro-6-((6-fluoro-2-methylpyridin-3-yl)oxy)-2-methyl-N-(3-(S-methylsulfonimidoyl)phenyl)-4-(trifluoromethyl)benzamide], the pIC50 was over 8.30 under setting [7] and over 8.30 under setting [8].

In the case of `COc1cc(C#N)ccc1Oc1ncc(Cl)c(C)c1C(=O)Nc1cccc([S@](C)(=N)=O)c1` [Example 26C, (R)-5-chloro-2-(4-cyano-2-methoxyphenoxy)-4-methyl-N-(3-(S-methylsulfonimidoyl)phenyl)nicotinamide], the pIC50 is 7.30 to 8.30 under setting [3] and 7.30 to 8.30 under setting [4].

Regarding `CN=[S@](C)(=O)c1cccc(NC(=O)c2c(Oc3ccc(F)nc3C)ncc(C(F)(F)F)c2C)c1` [Example 33C, (R)—N-(3-(N,S-dimethylsulfonimidoyl)phenyl)-2-((6-fluoro-2-methylpyridin-3-yl)oxy)-4-methyl-5-(trifluoromethyl)nicotinamide], the pIC50 under setting [3] was 7.30 to 8.30 and the negative-log IC50 (pIC50) under setting [4] was over 8.30.

Take `Cc1nc(F)ccc1Oc1ccc(C(F)(F)F)c(C)c1C(=O)Nc1cccc([S@@](C)(=O)=NC(=O)[C@H](C)O)c1` [Example 23B]: the pIC50 reads like this: under setting [5], over 8.30; under setting [6], over 8.30.

Regarding `COc1cc(C#N)ccc1Oc1cc(C(F)(F)F)nnc1C(=O)Nc1cccc(S(C)(=N)=O)c1` (stereo not shown) [Example 34C, 4-(4-cyano-2-methoxyphenoxy)-N-(3-(S-methylsulfonimidoyl)phenyl)-6-(trifluoromethyl)pyridazine-3-carboxamide], the pIC50 was under 6.70 under setting [3] and under 6.70 under setting [4].

In the case of `Cc1nc(F)ccc1Oc1cc(C(F)(F)F)ccc1C(=O)Nc1cccc([S@@](C)(=O)=NC(=O)[C@H](C)O)c1` [Example 12B, 2-((6-fluoro-2-methylpyridin-3-yl)oxy)-N-(3-((R)—N—((S)-2-hydroxypropanoyl)-S-methylsulfonimidoyl)phenyl)-4-(trifluoromethyl)benzamide], the pIC50 was 7.30 to 8.30 under setting [5] and 7.30 to 8.30 under setting [6].

For the molecule `Cc1nc(F)ccc1Oc1cc(C2CC2)c(C(F)(F)F)cc1C(=O)Nc1cccc([S@](C)(=N)=O)c1` [Example 67A], the pIC50 was over 8.30 under setting [7] and over 8.30 under setting [8].
